Laboratory results from patent US12428370B2, “Haloallylamine dual amine oxidase inhibitors” (Syntara Limited, priority 2020, dated 2025).

Experiments:
Format in all cases: in vivo
[1] = molecular target: T1, Adipose Tissue SSAO/VAP-1 (Mus musculus, UniProt O70423); assay: Mouse adipose tissue SSAO/VAP-1 activity after oral administration; conditions: for SSAO/VAP-1 activity in adipose tissue: C57BL/6J mice, single oral dose, FIG. 8
T1 construct: from tissue; host or cells: abdominal fat of C57BL/6J and mdx (C57BL/10ScSn-Dmdmdx/J) mice
T1 sequence (O70423 1-765): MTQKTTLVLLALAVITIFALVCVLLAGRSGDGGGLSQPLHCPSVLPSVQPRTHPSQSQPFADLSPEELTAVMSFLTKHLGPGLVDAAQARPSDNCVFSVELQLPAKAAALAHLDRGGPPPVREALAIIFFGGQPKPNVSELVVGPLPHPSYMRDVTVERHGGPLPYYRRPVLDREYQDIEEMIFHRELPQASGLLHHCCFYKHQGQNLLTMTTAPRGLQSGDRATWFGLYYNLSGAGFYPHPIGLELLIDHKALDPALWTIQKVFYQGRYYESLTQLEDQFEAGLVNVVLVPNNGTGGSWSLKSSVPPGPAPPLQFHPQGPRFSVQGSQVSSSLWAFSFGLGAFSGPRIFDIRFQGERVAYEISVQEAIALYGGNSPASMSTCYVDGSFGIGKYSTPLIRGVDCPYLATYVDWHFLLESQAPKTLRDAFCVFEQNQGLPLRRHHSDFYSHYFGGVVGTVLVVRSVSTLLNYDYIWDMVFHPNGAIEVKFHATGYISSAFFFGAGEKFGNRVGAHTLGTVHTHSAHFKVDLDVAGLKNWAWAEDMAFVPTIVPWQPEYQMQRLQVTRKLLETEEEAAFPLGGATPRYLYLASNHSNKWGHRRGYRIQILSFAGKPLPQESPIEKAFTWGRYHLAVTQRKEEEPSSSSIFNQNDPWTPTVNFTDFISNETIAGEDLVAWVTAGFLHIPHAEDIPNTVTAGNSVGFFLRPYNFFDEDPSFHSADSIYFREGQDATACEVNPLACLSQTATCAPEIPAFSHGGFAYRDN
Experimental: (§1) Mice were orally administered the compound under study and sacrificed at various time points and abdominal fat, muscle and heart tissue collected.
SSAO/VAP-1 activity in the adipose tissue was determined as described in EXAMPLE 13.
(§2) Activity of the treated samples was analyzed using the fluorometric method described in EXAMPLE 9 for SSAO/VAP-1 activity, EXAMPLE 10 for MAO-B and EXAMPLE 11 for MAO-A activity (FIG. 8 and FIG. 9).

[2] = molecular target: T2, Muscle and Heart Tissue MAO-B (Mus musculus, UniProt Q8BW75); assay: Mouse muscle and heart tissue MAO-B activity after oral administration; conditions: for MAO-B activity in heart and muscle tissue: C57BL/6J mice, single oral dose, FIG. 8
T2 construct: Skeletal muscle was pulverized in liquid nitrogen and then suspended in ice-cold HEPES buffered media; from tissue; host or cells: skeletal muscle and heart of C57BL/6J and mdx mice (mitochondrial extract)
T2 sequence (Q8BW75 1-520): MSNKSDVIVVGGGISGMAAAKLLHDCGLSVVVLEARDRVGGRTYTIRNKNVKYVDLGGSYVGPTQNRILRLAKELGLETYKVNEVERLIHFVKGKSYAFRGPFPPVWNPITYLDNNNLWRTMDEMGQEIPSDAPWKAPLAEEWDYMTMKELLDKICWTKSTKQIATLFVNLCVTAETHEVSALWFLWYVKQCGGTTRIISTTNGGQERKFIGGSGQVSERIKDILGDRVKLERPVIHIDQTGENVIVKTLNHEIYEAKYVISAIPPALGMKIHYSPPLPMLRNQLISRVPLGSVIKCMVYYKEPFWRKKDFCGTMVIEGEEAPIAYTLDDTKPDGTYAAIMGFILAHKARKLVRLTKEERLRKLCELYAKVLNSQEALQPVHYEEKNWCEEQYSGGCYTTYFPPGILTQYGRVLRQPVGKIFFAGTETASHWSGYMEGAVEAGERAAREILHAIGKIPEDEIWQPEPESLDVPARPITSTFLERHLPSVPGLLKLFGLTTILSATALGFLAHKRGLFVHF
Experimental: as §1
(§3) Skeletal muscle was pulverized in liquid nitrogen and then suspended in ice-cold HEPES buffered media (20 mM HEPES, 0.8% w/v free-fatty acid bovine serum albumin (BSA), 75 mM sucrose, 10 mM EDTA, 215 mM D-mannitol, pH 7.4). Homogenized and then centrifuged at 2,500 rpm for 10 minutes at 4° C. Supernatant transferred and centrifuged at 10,000 rpm for 8 minutes. Supernatant discarded and the resultant pellet containing the mitochondrial extract re-suspended in 0.1 M sodium phosphate buffer solution (1:3 ratio).
(§4) Heart muscle was washed with PBS solution three times over ice. Homogenate and extract was then prepared as described for the skeletal muscle.
MAO-B activity was determined by using a specific MAO-A inhibitor (e.g. clorgyline) and an SSAO/VAP-1 inhibitor (e.g. semicarbazide) to establish the high signal. Low signal was established as for the adipose tissue assay (EXAMPLE 13).
as §2

[3] = molecular target: T3, Muscle and Heart Tissue MAO-A (Mus musculus, UniProt Q64133); assay: Mouse muscle and heart tissue MAO-A activity after oral administration
T3 construct: Skeletal muscle was pulverized in liquid nitrogen and then suspended in ice-cold HEPES buffered media; from tissue; host or cells: skeletal muscle and heart of C57BL/6J and mdx mice (mitochondrial extract)
T3 sequence (Q64133 1-526): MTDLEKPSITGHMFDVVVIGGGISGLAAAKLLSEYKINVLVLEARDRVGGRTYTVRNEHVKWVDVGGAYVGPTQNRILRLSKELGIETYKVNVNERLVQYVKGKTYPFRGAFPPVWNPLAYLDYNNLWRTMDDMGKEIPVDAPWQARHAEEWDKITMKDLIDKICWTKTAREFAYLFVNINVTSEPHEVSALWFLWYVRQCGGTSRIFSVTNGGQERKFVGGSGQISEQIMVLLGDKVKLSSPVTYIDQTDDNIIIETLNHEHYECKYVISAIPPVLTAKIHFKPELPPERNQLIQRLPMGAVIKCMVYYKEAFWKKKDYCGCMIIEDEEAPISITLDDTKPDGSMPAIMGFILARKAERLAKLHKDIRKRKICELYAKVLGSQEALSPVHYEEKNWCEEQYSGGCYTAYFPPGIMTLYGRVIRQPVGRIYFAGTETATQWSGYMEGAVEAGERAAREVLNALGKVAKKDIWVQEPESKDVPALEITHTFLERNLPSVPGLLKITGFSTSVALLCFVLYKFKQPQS
Experimental: as §1, §3, §4
MAO-A activity was determined by using a selective MAO-B inhibitor mofegiline (at 30 nM) to establish the high signal and a mixture of specific MAO-A inhibitor (clorgyline) and mofegiline (at 30 nM) to determine the low signal.
as §2

[4] = various doses, 4 hours after administration
[5] = mdx mice (C57BL/10ScSn-Dmdmdx/J), oral, FIG. 10

N#Cc1ccc(OC/C(=C/F)CN)cc1 [Compound 1, (E)-4-((2-(aminomethyl)-3-fluoroallyl)oxy) benzonitrile]
SSAO/VAP-1 activity in adipose tissue ([1]; 24-hour time point): inhibition of the enzyme activity is still evident
SSAO/VAP-1 activity in adipose tissue [1, 4]: dose-related reduction
adipose tissue SSAO/VAP-1 activity [1, 5]: completely inhibits
MAO-B activity in heart and muscle tissue ([2]; 24-hour time point): inhibition of the enzyme activity is still evident
MAO-B activity in heart and muscle tissue [2, 4]: dose-related reduction
muscle MAO-B activity [2, 5]: completely inhibits
heart and muscle MAO-A activity ([3]; C57BL/6J mice, single oral dose, 4 and 24 hours after administration, FIG. 9): no inhibitory effect
muscle MAO-A activity ([3]; mdx mice (C57BL/10ScSn-Dmdmdx/J), oral, FIG. 11): no inhibitory effect
